The values below come from PMC9499987 (Antiviral Research, 2022).

Experiment [1] deals with HCoV-OC43. Briefly: Anti-coronavirus activity assay. The format is cell-based. Conditions: HCT-8 cells, MOI 0.1, serial dilutions up to 50 μM.
Experiment [2] addresses T1, SARS-CoV-2 3CL^pro (Severe acute respiratory syndrome coronavirus 2, UniProt P0DTD1). In words: cell-based. Conditions: EC50 against SARS-CoV-2 3CLpro (BRET ratio). (In general: Bioluminescence resonance energy transfer reports proximity on the nanometre scale.)
The target of experiment [3] is T1, SARS-CoV-2 3CL^pro. In words: Microscale thermophoresis. The format is binding. Conditions: for Kd: Kd(M); for pKd: Kd. (In general: Microscale thermophoresis detects binding through changes in fluorescence in a small temperature gradient.)

pEC50, pKd: −log10 of the molar value.

`C=C[C@@H]1C[C@]1(NC(=O)[C@@H]1C[C@@H]2CN1C(=O)[C@H](C(C)(C)C)NC(=O)O[C@@H]1C[C@H]1CCCCCc1nc3ccc(OC)cc3nc1O2)C(=O)NS(=O)(=O)C1CC1.O` [grazoprevir, Grazoprevir]: the “inhibitory effect on the replication of HCoV-OC43” value in experiment [1] is “did not significantly inhibit”.

Usually pEC50 stands for the EC50 on a negative log10 scale, so that one unit is a factor of ten. In the case of `CC(C)(C)NC(=O)[C@@H]1C[C@@H]2CCCC[C@@H]2CN1C[C@@H](O)[C@H](Cc1ccccc1)NC(=O)[C@H](CC(N)=O)NC(=O)c1ccc2ccccc2n1` [saquinavir], the negative-log EC50 (pEC50) in experiment [2] is 4.40.

A word on the Kd: it is a measure of binding affinity in units of concentration. By pKd is commonly meant the Kd on a negative log10 scale, so that one unit is a factor of ten. The low end stands for a high Kd, the high end for a low Kd. Turning to `C=C(C)[C@@H]1CC[C@]2(C(=O)O)CC[C@]3(C)[C@H](CC[C@@H]4[C@@]5(C)CC[C@H](OC(=O)CC(C)(C)C(=O)O)C(C)(C)[C@@H]5CC[C@]43C)[C@@H]12` [bevirimat, Bevirimat], the “inhibitory effect on the replication of HCoV-OC43” value in experiment [1] is listed as “did not significantly inhibit”. For the same compound, in experiment [3] (MST, target 100 nM, ligand 0.0153 μM–500 μM, MST power 40%), the Kd was 1.05e-05 M. For the same compound, in experiment [3] (MST, labeled 3CLpro 100 nM, 40% MST power), the pKd was 4.98.

In experiment [3], `Cc1c(O)cccc1C(=O)N[C@@H](CSc1ccccc1)[C@H](O)CN1C[C@H]2CCCC[C@H]2C[C@H]1C(=O)NC(C)(C)C` [nelfinavir, Nelfinavir] showed a negative logarithm of the Kd (pKd) of 4.04 and a Kd of 9.16e-05 M.
